In patent US7670997B2, “Ophthalmic compositions comprising a branched, glycerol monoalkyl compound and a fatty acid monoester” (Bausch & Lomb Incorporated, priority 2006, dated 2010):
Like-named read-outs stand apart in the source and are kept apart here.

Experiments:
[1] = tested on: Gram-positive bacteria associated with perspiration odor; settings: Sensiva product literature, Schulke & Mayr; cited from earlier work
[2] = for Foam Height Time = 0 min: after 10 seconds of vigorous shaking; for Foam Height Time = 30 min: after 30 minutes of standing
Description: In such a test, 50 mL of the solution being tested is placed in a 100 mL graduated cylinder (2.6 cm in diameter). The foam height is measured after 10 seconds of vigorous shaking of the cylinder containing the test solution. Foam height after 30 minutes of standing is also measured to evaluate foam draining propensity of the test solutions.

[3] = octoxyglycerin 0.05 ppm in Table 1 formulation
[4] = octoxyglycerin 0.10 ppm in Table 1 formulation
[5] = octoxyglycerin 0.25 ppm in Table 1 formulation
[6] = octoxyglycerin 0.50 ppm in Table 1 formulation
[7] = octoxyglycerin 0.75 ppm in Table 1 formulation
[8] = octoxyglycerin 1.00 ppm in Table 1 formulation
[9] = octoxyglycerin 2.00 ppm in Table 1 formulation

CCCCC(CC)COCC(O)CO (stereo not shown) [octoxyglycerin, 3-[(2-ethylhexyl)oxy]-1,2-propanediol]
antimicrobial activity against Gram-positive bacteria [1]: exhibit antimicrobial activity | control of foaming ([2]; amounts over 0.05 ppm, multi-purpose lens care products with over 3.0 wt % foaming surfactants (Pluronic F127, Tetronic 1107)): effective control of foaming | Foam Height Time = 0 min [2, 3]: 3.8 ± 0.2 cm | Foam Height Time = 30 min [2, 3]: 3.0 ± 0.3 cm | Foam Height Time = 0 min [2, 4]: 2.6 ± 0.4 cm | Foam Height Time = 30 min [2, 4]: 2.0 ± 0.2 cm | Foam Height Time = 0 min [2, 5]: 1.3 ± 0.2 cm | Foam Height Time = 30 min [2, 5]: 0.8 ± 0.2 cm | Foam Height Time = 0 min [2, 6]: 0.7 ± 0.2 cm | Foam Height Time = 30 min [2, 6]: 0.4 ± 0.1 cm | Foam Height Time = 0 min [2, 7]: 0.3 ± 0.1 cm | Foam Height Time = 30 min [2, 7]: 0.2 ± 0.1 cm | Foam Height Time = 0 min [2, 8]: 0.1 ± 0.0 cm | Foam Height Time = 30 min [2, 8]: 0.0 ± 0.0 cm | Foam Height Time = 0 min [2, 9]: 0.1 ± 0.0 cm | Foam Height Time = 30 min [2, 9]: 0.0 ± 0.0 cm
